Measurements published in patent US20240148714A1, “Triple Negative Breast Cancer Treatment Method” (Exelixis, Inc., priority 2016, published 2024).
Entries after “also recorded” stand apart in the source; their conditions may differ.

Tested on: plasma biomarkers
Test: Circulating biomarker assays: plasma proteins (multiplex arrays, ELISA)
Assay type: in vivo, human
Parameters: plasma VEGF R2, Median / plasma bFGF, Median / plasma sPLT-3, Median / plasma VEGF, Median / plasma VEGF-D, Median / plasma sMET, Median: unit not given beside the values
Text: Circulating Biomarker Assays: Potential biomarkers of cabozantinib activity were identified by measuring plasma proteins at baseline, on day 8 of therapy, on day 1 of each cycle of therapy, and, if available, at the time of progression. Eight milliliters of blood was collected in purple top (plasma EDTA) vacutainers and shipped on wet ice to a Clinical Laboratory Improvement Amendments-certified core in the Steele Laboratories (Massachusetts General Hospital), where whole blood was separated by centrifugation into cellular fraction and plasma. The fraction of stem/progenitor cell, lymphocyte, and myeloid populations of total circulating mononuclear cells were counted by flow cytometry using a LSR-II cytometer and FACSDiva software in fresh blood samples using the following markers: CD3, CD4, CD8, CD14, CD25, CD34, CD45, CD56, CD127, and CD133 (Becton Dickinson, Franklin Lakes, NJ, www.bd.com). Plasma was prepared in the standard fashion and stored at −78° C. until collection and analysis of all samples. The biomarkers measured included VEGF, placental growth factor (PlGF), VEGF-C, VEGF-D, soluble VEGFR1 (sVEGFR1), basic fibroblast growth factor (bFGF), and sTie-2 (using a 7-plex Growth Factor array) and granulocyte-macrophage colony stimulating factor (GM-CSF), interferon gamma (IFN-g), tumor necrosis factor alpha (TNF-a), and interleukin-1beta (IL-1b), IL-2, IL-6, IL-8, IL-10, and IL-12 heterodimer p70 (using a 9-plex Inflammatory Factor array; both Meso Scale Discovery, Gaithersburg, MD, www.mesoscale.com); and HGF, sMET, carbonic anhydrase IX (CAIX), stromal cell-derived factor 1 a (SDF1a), and sVEGFR2 by single analyte enzyme-linked immunosorbent assay (R&D Systems, Minneapolis, MN, www.rndsystems.com). Descriptive statistics were used to summarize biomarker values at protocol-specific time points. […] The Wilcoxon signed rank test assessed biomarker change from day 1 to 8. Mixed effects linear models assessed the change in biomarker values at days 1, 8, 22, 43, and 64; values beyond day 64 were not analyzed because of the small number of patients still on protocol. In the mixed effects linear model, the fixed effects were times of assessment, and patients were entered as a random effect. Logarithmic transformation was used to achieve normality, when applicable. Baseline biomarkers were stratified by using the median values for the entire cohort. The log-rank test compared PFS among patients with low or high baseline sMET. All tests were conducted with two-sided […]. The Benjamini-Hochberg procedure was used to adjust p values to control the false discovery rate from evaluating multiple circulating biomarkers.

[1] = baseline to day 22, maintained at day 64

COc1cc2nccc(Oc3ccc(NC(=O)C4(C(=O)Nc5ccc(F)cc5)CC4)cc3)c2cc1OC [cabozantinib]
plasma VEGF R2, Median (Day 1 (baseline)): 8.872
plasma VEGF, Median (Day 1 (baseline)): 98
plasma VEGF-D, Median (Day 1 (baseline)): 1.062
plasma bFGF, Median (Day 1 (baseline)): 39
plasma sMET, Median (Day 1 (baseline)): 795
plasma sPLT-3, Median (Day 1 (baseline)): 1.24
plasma VEGF R2, Median (Day 8): 8.475
plasma VEGF, Median (Day 8): 188
plasma VEGF-D, Median (Day 8): 1.419
plasma bFGF, Median (Day 8): 41
plasma sMET, Median (Day 8): 890
plasma sPLT-3, Median (Day 8): 50
plasma VEGF R2, Median (Day 22): 6.726
plasma VEGF, Median (Day 22): 206
plasma VEGF-D, Median (Day 22): 1.582
plasma bFGF, Median (Day 22): 28
plasma sMET, Median (Day 22): 902
plasma sPLT-3, Median (Day 22): 90
plasma VEGF R2, Median (Day 43): 5.812
plasma VEGF, Median (Day 43): 206
plasma VEGF-D, Median (Day 43): 1.437
plasma bFGF, Median (Day 43): 33
plasma sMET, Median (Day 43): 903
plasma sPLT-3, Median (Day 43): 124
plasma VEGF R2, Median (Day 64): 5.968
plasma VEGF-D, Median (Day 64): 1.429
plasma bFGF, Median (Day 64): 21
plasma sMET, Median (Day 64): 923
plasma sPLT-3, Median (Day 64): 87
change in plasma PIGF [1]: increases
change in plasma VEGF [1]: increases
change in plasma VEGF-D [1]: increases
change in plasma HGF (day 8): initially decreased
change in plasma SDF1a (day 22): transiently increased; also recorded: increases
change in plasma HGF (day 64): increased
change in plasma CAIX (days 43 and 64): increases
change in plasma sVEGFR2 (days 43 and 64): significantly decreased
change in plasma bFGF over time (in vivo): did not significantly change
change in plasma sMET over time (in vivo): did not significantly change
change in plasma sTIE-2 over time (in vivo): did not significantly change
change in plasma sVEGFR1 over time (in vivo): did not significantly change
